Measurements from patent US20250108088A1, “REGENERATIVE PEPTIDES AND METHODS FOR USE THEREOF” (priority 2023, published 2025).

What was measured:
HNDF fibroblasts = experiment: Fibroblast cell proliferation (EDU); format: cell-based, human; conditions: N = 3; for Fibroblast proliferation, Representative value from experiments (% change relative to control): most effective significant concentration
Method: Fibroblast proliferation is an important component of tissue regeneration. To determine if the peptides of the disclosure affect fibroblast proliferation, HNDFs were grown as described above, and split from 1-10 cm plates to 4-24 well plates. After allowing the cells to grow overnight, normal media was replaced with starvation media (1% FBS in DMEM). 10 ng/ml of fibroblast growth factor (FGF) served as a positive control, untreated cells (starvation media only) served as a negative control, and different concentrations of the peptides as test articles. The cells were then exposed to the peptides for a day before adding 5-Ethynyl-2′-deoxyuridine (EDU) EDU signal marker for 2-4 hours to assess DNA synthesis and cell proliferation.
The fibroblasts were fixed in PFA for 10-15 minutes, then washed 2× in 4% BSA. 0.1% Triton X-100 in PBS was added for 20 min at 23° C. to permeabilize the cells. The cells were washed 2× in 4% BSA and the following reaction mixture was added: 0.25% of 488 iFlour azide, 4% CuSO, 10% Sodium Ascorbate in PBS. The cells were incubated at 23° C. for 30 minutes. The cells were washed in BSA 1× and in PBS 1×. The cells were also stained for DAPI for 30 minutes at 23° C. The cells were washed 2× in PBS and maintained in PBS.
Plates were imaged using the Celigo Imaging Cytometer by Nexcelcom. The amount of fluorescent expression of EDU and DAPI were quantified to determine the amount of EDU/field (and thus the percentage of fibroblast cells dividing).
Because the concentration required to induce an effect with each peptide was not known, each peptide was tested in 3 concentrations: 10 ng/ml, 100 ng/ml, and 1000 ng/ml as shown in Table 4A and Table 4B.

[1] = tested on: Normal human dermal fibroblasts (HNDF); experiment: Myofibroblast transition assay (MFT), aSMA immunofluorescence; format: cell-based; conditions: N = 3; for Myofibroblast transition (MFT), aSMA/cell, % change relative to control: TGF-Beta induced HNDF, control of no peptide; for MFT, Representative value from experiments (% change relative to control): most effective significant concentration of 10, 100, 1000 ng/ml
From the text: The myofibroblast transition (MFT) assay determines the effect of the peptide on inhibiting the transition of fibroblasts to myofibroblasts. The extracellular matrix produced by myofibroblasts may be produced in excess and may not be remodeled during tissue healing, leaving behind the fibrous connective tissue that forms a scar. Thus, the ability to regulate the degree of MFT may enable control of scarring. To determine if the peptides provided herein affect MFT, the following assay was performed.
Normal human dermal fibroblasts (HNDF) were cultured in high glucose Dulbecco's modified eagle medium (DMEM) supplemented with 10% fetal bovine serum (FBS) and 5 ml of 10,000 units of penicillin/streptomycin. Cells were cultured on 10 cm plates with media changes every 2 days. Cells were passaged in 0.25% Trypsin/EDTA after achieving 80% confluency.
To induce myofibroblast transition (MFT), normal human dermal fibroblasts (HNDFs) were split from 1-10 cm plates to 5-96 well plates. Cells were then allowed to grow the next day. The following day, cells were serum starved (1% FBS in DMEM) for 4 hours prior to adding 20 ng/ml of TGF-Beta to all wells of the plate. 1000 μM of Vactosertib (TEW-7197/EW-7197) was added to serve as a positive control and different concentrations of peptides were added to serve as the test articles. The cells were then exposed to the compounds for 5 more days before fixation.
The cells were fixed in paraformaldehyde (PFA) for 10-15 minutes, then washed 2× in PBS. Cells were blocked in 4% BSA for 30 minutes at 23° C. Cells were stained with the primary alpha-smooth muscle actin (aSMA) antibody (1:100) for 1 hour at 23° C. or left out at 4° C. overnight. Cells were rinsed 2× with BSA and then the secondary antibody mix was added: Alexa 488 (1:500) and DAPI (1:1000) for 30 min at 23° C. or 1 hr at 4° C. The plates were covered during staining, then rinsed 2× in BSA and stored in PBS.
Plates were imaged using the Celigo Imaging Cytometer by Nexcelcom. The ratio of fluorescent expression of alpha-smooth muscle actin (aSMA) and DAPI were quantified to determine the amount of aSMA/cell.
The change (normalized to the control) in MFT for each concentration is shown along with the p value for all experiments relative to the control of no peptide.

[2] = tested on: interleukin-8 (IL-8) production in human fibroblasts; experiment: Fibroblast inflammation assay (LPS-induced IL-8, ELISA); format: cell-based; conditions: LPS induction
Method: Inflammation in fibroblasts leads to the production of the chemokine interleukin-8 (IL-8), which stimulates fibroblast to myofibroblast transition (MFT) thereby enhancing scar formation. To determine if the peptides of the instant disclosure affect fibroblast response to inflammation and fibroblast IL-8 production, the following assays were performed.
Human fibroblasts were grown as described above. HNDFs were plated in 96 well plates at a concentration of 1×10^4 cells/well and allowed to incubate overnight. The next day cells were dosed with 5 μg/mL of LPS with and without the peptides. The negative control contained only media and vehicle, while the positive control was dosed with lipopolysaccharides (LPS) and dexamethasone (50 μg/ml). After 24 hours, the media was removed to measure IL6 and IL8 cytokine levels using ELISA. A standard curve was plotted in excel. All data were blank subtracted and then fit onto the curve to calculate cytokine concentrations.

Keratinocytes = experiment: Keratinocyte scratch assay; format: cell-based, human; parameters: Keratinocyte scratch assay (% change relative to control): unit not given here
Method: HNDF fibroblasts were grown as described above. HNDFs were split from 1-10 cm plate to 4-24 well plates. Cells were allowed to grow until 90-100% confluent. Cells were serum starved (in 1% FBS in DMEM) for 4 hours before scratching using the Biotek Autoscratch machine. Cells were washed with PBS and the media was replaced with starvation media as a negative control, normal media (10% FBS) as positive control, and starvation media+compound as the test article. Cells were imaged at T=0 to serve as a baseline and fixed at T=48 hours. The images at 48 hours were imaged using phase contrast microscopy or with wheat germ agglutinin (WGA) stain.
Scratch assays were also performed on keratinocytes. Keratinocytes were grown to confluency and scratch assays were performed and measured as above with fibroblasts.

## AATHEFGHSLGLSH [MBm1]
HNDF fibroblasts; 100 ng/ml peptide
  Fibroblast proliferation (% change relative to control): 0.2919%
HNDF fibroblasts
  Fibroblast proliferation, Representative value from experiments (% change relative to control): 0.2919 (p = 0.044) %

## ERDLK [MBb14]
HNDF fibroblasts; 10 ng/ml peptide
  Fibroblast proliferation (% change relative to control): 1.094%
HNDF fibroblasts
  Fibroblast proliferation, Representative value from experiments (% change relative to control): 1.094 p = (0.029) %

## FEDVIAEP [MBa5]
HNDF fibroblasts; 10 ng/ml peptide
  Fibroblast proliferation (% change relative to control): 0.5133%
HNDF fibroblasts
  Fibroblast proliferation, Representative value from experiments (% change relative to control): 0.5133 (p = 0.004) %

## GYRCSKG [MBa7]
HNDF fibroblasts; 10 ng/ml peptide
  Fibroblast proliferation (% change relative to control): 0.3483%
HNDF fibroblasts; 1000 ng/ml peptide
  Fibroblast proliferation (% change relative to control): 0.4644%
HNDF fibroblasts
  Fibroblast proliferation, Representative value from experiments (% change relative to control): 0.4644 p = (0.01) %

## IDFEDVIAEP [MBa4]
HNDF fibroblasts; 1000 ng/ml peptide
  Fibroblast proliferation (% change relative to control): 0.8384%
HNDF fibroblasts
  Fibroblast proliferation, Representative value from experiments (% change relative to control): 0.8384 p = (0.037) %

## PHKGLFCHFGSPANRKIGV [MBWhit47]
[1]; 10 ng/ml peptide
  Myofibroblast transition (MFT), aSMA/cell, % change relative to control: −0.6575%
[1]; 100 ng/ml peptide
  Myofibroblast transition (MFT), aSMA/cell, % change relative to control: −0.5896%
[1]; 1000 ng/ml peptide
  Myofibroblast transition (MFT), aSMA/cell, % change relative to control: −0.5755%
[1]
  MFT, Representative value from experiments (% change relative to control): −0.6575 p = (0.021) %

## PKPQP [MBb28]
[2]
  effect on IL-8 inhibition in fibroblasts relative to the negative control: low but significant effect
[1]; 100 ng/ml peptide
  Myofibroblast transition (MFT), aSMA/cell, % change relative to control: −0.243%
[1]; 1000 ng/ml peptide
  Myofibroblast transition (MFT), aSMA/cell, % change relative to control: −0.1881%
[1]
  MFT, Representative value from experiments (% change relative to control): −0.243 p = (0.006) %

## PPSILGLRKRLRKFRNK [MBb44]
[1]; 100 ng/ml peptide
  Myofibroblast transition (MFT), aSMA/cell, % change relative to control: −0.1751%
[1]
  MFT, Representative value from experiments (% change relative to control): −0.1751 p = (0.005) %

## QFCGPCGLRKRLRKFRNK [MBb11]
Keratinocytes
  increase of keratinocyte migration: at least 39%
  rate of keratinocyte migration: significantly increased
Keratinocytes; 1000 ng/ml, N = 8
  Keratinocyte scratch assay (% change relative to control): 0.3892
[2]
  effect on IL-8 inhibition in fibroblasts relative to the negative control: low but significant effect
[1]; 100 ng/ml peptide
  Myofibroblast transition (MFT), aSMA/cell, % change relative to control: −0.3537%
[1]; 1000 ng/ml peptide
  Myofibroblast transition (MFT), aSMA/cell, % change relative to control: −0.419%
[1]
  MFT, Representative value from experiments (% change relative to control): −0.419 p = (0.025) %

## QLFEDVIAEP [MBBey 38]
[1]; 10 ng/ml peptide
  Myofibroblast transition (MFT), aSMA/cell, % change relative to control: −0.3071%
[1]
  MFT, Representative value from experiments (% change relative to control): −0.3071 p = (0.007) %

## RNPDSPQ [MBBey14]
[1]; 10 ng/ml peptide
  Myofibroblast transition (MFT), aSMA/cell, % change relative to control: −0.3781%
[1]; 100 ng/ml peptide
  Myofibroblast transition (MFT), aSMA/cell, % change relative to control: −0.3863%
[1]; 1000 ng/ml peptide
  Myofibroblast transition (MFT), aSMA/cell, % change relative to control: −0.5336%
[1]
  MFT, Representative value from experiments (% change relative to control): −0.5336 p = (0.012) %

## RVIWA [MBb4.2]
[1]; 100 ng/ml peptide
  Myofibroblast transition (MFT), aSMA/cell, % change relative to control: −0.2113%
[1]; 1000 ng/ml peptide
  Myofibroblast transition (MFT), aSMA/cell, % change relative to control: −0.2416%
[1]
  MFT, Representative value from experiments (% change relative to control): −0.2416 p = (0.003) %

## RWMAP [MBb74]
[1]; 10 ng/ml peptide
  Myofibroblast transition (MFT), aSMA/cell, % change relative to control: 0.04975%
[1]; 1000 ng/ml peptide
  Myofibroblast transition (MFT), aSMA/cell, % change relative to control: −0.3048%
[1]
  MFT, Representative value from experiments (% change relative to control): −0.3048 p = (0.019) %

## SAYGVSKGLRKRLRKFRNK [MBb51]
HNDF fibroblasts; 100 ng/ml peptide
  Fibroblast proliferation (% change relative to control): 0.3099%
HNDF fibroblasts; 1000 ng/ml peptide
  Fibroblast proliferation (% change relative to control): 0.4175%
HNDF fibroblasts
  Fibroblast proliferation, Representative value from experiments (% change relative to control): 0.4175 p = (0.025) %
[1]; 10 ng/ml peptide
  Myofibroblast transition (MFT), aSMA/cell, % change relative to control: −0.5028%
[1]; 1000 ng/ml peptide
  Myofibroblast transition (MFT), aSMA/cell, % change relative to control: −0.3773%
[1]
  MFT, Representative value from experiments (% change relative to control): −0.5028 p = (0.042) %

## SDAAVDTSSEITTKDLKEKKEVVEEAENGR [PS-2]
[1]; 10 ng/ml peptide
  Myofibroblast transition (MFT), aSMA/cell, % change relative to control: −0.4315%
[1]; 100 ng/ml peptide
  Myofibroblast transition (MFT), aSMA/cell, % change relative to control: −0.498%
[1]
  MFT, Representative value from experiments (% change relative to control): −0.498 p = (0.048) %

## SSSGLGLRKRLRKFRNK [MBb50]
HNDF fibroblasts; 100 ng/ml peptide
  Fibroblast proliferation (% change relative to control): 0.3589%
HNDF fibroblasts
  Fibroblast proliferation, Representative value from experiments (% change relative to control): 0.3589 p = (0.025) %

## VAAHELGHSLGMGH [MBm2]
[1]; 10 ng/ml peptide
  Myofibroblast transition (MFT), aSMA/cell, % change relative to control: −0.4235%
[1]; 100 ng/ml peptide
  Myofibroblast transition (MFT), aSMA/cell, % change relative to control: −0.3275%
[1]; 1000 ng/ml peptide
  Myofibroblast transition (MFT), aSMA/cell, % change relative to control: −0.2058%
[1]
  MFT, Representative value from experiments (% change relative to control): −0.4235 p = (0.007) %

## VCDEPKDQTVVGPALAAYR [MBWhit46]
[1]; 10 ng/ml peptide
  Myofibroblast transition (MFT), aSMA/cell, % change relative to control: −0.534%
[1]; 100 ng/ml peptide
  Myofibroblast transition (MFT), aSMA/cell, % change relative to control: −0.6191%
[1]; 1000 ng/ml peptide
  Myofibroblast transition (MFT), aSMA/cell, % change relative to control: −0.6328%
[1]
  MFT, Representative value from experiments (% change relative to control): −0.6328 p = (0.031) %

## VLFEDVIAEP [MBBey 37]
[1]; 1000 ng/ml peptide
  Myofibroblast transition (MFT), aSMA/cell, % change relative to control: −0.2873%
[1]
  MFT, Representative value from experiments (% change relative to control): −0.2873 p = (0.018) %

## VYFVIKT [MBBey41]
[1]; 1000 ng/ml peptide
  Myofibroblast transition (MFT), aSMA/cell, % change relative to control: −0.691%
[1]
  MFT, Representative value from experiments (% change relative to control): −0.691 p = (0.021) %

## WVSGL [MBb7]
[1]; 10 ng/ml peptide
  Myofibroblast transition (MFT), aSMA/cell, % change relative to control: −0.2139%
[1]; 100 ng/ml peptide
  Myofibroblast transition (MFT), aSMA/cell, % change relative to control: −0.1848%
[1]
  MFT, Representative value from experiments (% change relative to control): −0.2139 p = (0.02) %
